Test results: the CheMixHub ionic liquid set
Several values for one entry are separate records, joined by “and”; a condition that tells them apart may be missing. Identical values can stand only once.

Experiment: xn = mol fraction of the nth substance listed
Settings: 298.15 K, 101 kPa, frequency 0.001 MHz

CCCCCCCCCCCCCCCC[N+](C)(C)C.[Br-] + CCCCCCCCCCCCOS(=O)(=O)[O-].[Na+] + O
Settings	electrical conductivity
x2 = 0, x1 = 3e-08	0.000332 S/m
x2 = 0, x1 = 1.09e-06	0.001 S/m
x2 = 0, x1 = 2.34e-06	0.00165 S/m
x2 = 0, x1 = 3.39e-06	0.00255 S/m
x2 = 0, x1 = 4.43e-06	0.00305 S/m
x2 = 0, x1 = 5.57e-06	0.00366 S/m
x2 = 0, x1 = 6.72e-06	0.00441 S/m
x2 = 0, x1 = 7.97e-06	0.00511 S/m
x2 = 0, x1 = 8.91e-06	0.00577 S/m
x2 = 0, x1 = 1.12e-05	0.00697 S/m
x2 = 0, x1 = 1.213e-05	0.00757 S/m
x2 = 0, x1 = 1.307e-05	0.00823 S/m
x2 = 0, x1 = 1.411e-05	0.00873 S/m
x2 = 0, x1 = 1.526e-05	0.00943 S/m
x2 = 0, x1 = 1.63e-05	0.00978 S/m
x2 = 0, x1 = 1.734e-05	0.0102 S/m
x2 = 0, x1 = 1.922e-05	0.0105 S/m
x2 = 0, x1 = 1.995e-05	0.0108 S/m
x2 = 0, x1 = 2.172e-05	0.0111 S/m
x2 = 0, x1 = 2.276e-05	0.0113 S/m
x2 = 0, x1 = 2.443e-05	0.0115 S/m
x2 = 0, x1 = 2.599e-05	0.0117 S/m
x2 = 0, x1 = 2.734e-05	0.012 S/m
x2 = 0, x1 = 2.859e-05	0.0122 S/m
x2 = 1e-08, x1 = 1e-08	0.000339 S/m and 0.000404 S/m
x2 = 1e-08, x1 = 3e-08	0.000436 S/m
x2 = 1e-08, x1 = 4e-08	0.000343 S/m
x2 = 1e-08, x1 = 1.2e-07	0.000394 S/m
x2 = 2e-08, x1 = 2e-08	0.000534 S/m
x2 = 2e-08, x1 = 3e-08	0.000686 S/m and 0.000765 S/m
x2 = 2e-08, x1 = 4e-08	0.000522 S/m and 0.000583 S/m and 0.000801 S/m
x2 = 2e-08, x1 = 5e-08	0.000647 S/m and 0.000697 S/m
x2 = 2e-08, x1 = 7e-08	0.000383 S/m
x2 = 2e-08, x1 = 8e-08	0.000422 S/m
x2 = 2e-08, x1 = 1.5e-07	0.000412 S/m
x2 = 2e-08, x1 = 1.9e-07	0.000438 S/m
x2 = 3e-08, x1 = 1e-08	0.000594 S/m
x2 = 3e-08, x1 = 4e-08	0.000836 S/m
x2 = 3e-08, x1 = 5e-08	0.000883 S/m
x2 = 3e-08, x1 = 6e-08	0.000733 S/m
x2 = 3e-08, x1 = 7e-08	0.000772 S/m
x2 = 3e-08, x1 = 1.1e-07	0.000459 S/m
x2 = 3e-08, x1 = 2.3e-07	0.000467 S/m
x2 = 3e-08, x1 = 3e-07	0.000493 S/m
x2 = 4e-08, x1 = 2e-08	0.000416 S/m and 0.00028 S/m
x2 = 4e-08, x1 = 6e-08	0.000919 S/m
x2 = 4e-08, x1 = 8e-08	0.000812 S/m
x2 = 4e-08, x1 = 1e-07	0.000848 S/m
x2 = 4e-08, x1 = 1.7e-07	0.000541 S/m
x2 = 4e-08, x1 = 3.6e-07	0.000522 S/m
x2 = 5e-08, x1 = 1e-08	0.000679 S/m
x2 = 5e-08, x1 = 7e-08	0.000941 S/m
x2 = 5e-08, x1 = 1.2e-07	0.000887 S/m
x2 = 5e-08, x1 = 4.3e-07	0.000555 S/m
x2 = 6e-08, x1 = 2e-08	0.000797 S/m
x2 = 6e-08, x1 = 6e-08	0.000747 S/m
x2 = 6e-08, x1 = 9e-08	0.000991 S/m
x2 = 6e-08, x1 = 2.4e-07	0.000642 S/m
x2 = 7e-08, x1 = 1.1e-07	0.00101 S/m
x2 = 7e-08, x1 = 1.5e-07	0.000924 S/m
x2 = 7e-08, x1 = 2.9e-07	0.000707 S/m
x2 = 8e-08, x1 = 1e-08	0.000628 S/m
x2 = 8e-08, x1 = 2e-08	0.000891 S/m
x2 = 8e-08, x1 = 3e-08	0.00034 S/m
x2 = 8e-08, x1 = 5e-08	0.00106 S/m
x2 = 8e-08, x1 = 1.9e-07	0.00096 S/m
x2 = 8e-08, x1 = 3.2e-07	0.000765 S/m
x2 = 9e-08, x1 = 6e-08	0.00125 S/m
x2 = 9e-08, x1 = 1.3e-07	0.00105 S/m
x2 = 9e-08, x1 = 3.7e-07	0.000826 S/m
x2 = 1e-07, x1 = 6e-08	0.00139 S/m
x2 = 1e-07, x1 = 1.5e-07	0.00109 S/m
x2 = 1.1e-07, x1 = 7e-08	0.00148 S/m
x2 = 1.1e-07, x1 = 1.1e-07	0.001 S/m
x2 = 1.2e-07, x1 = 3e-08	0.00103 S/m
x2 = 1.2e-07, x1 = 5e-08	0.000383 S/m
x2 = 1.2e-07, x1 = 8e-08	0.00152 S/m
x2 = 1.2e-07, x1 = 1.7e-07	0.00113 S/m
x2 = 1.4e-07, x1 = 1.4e-07	0.00108 S/m
x2 = 1.4e-07, x1 = 2.1e-07	0.00116 S/m
x2 = 1.5e-07, x1 = 4e-08	0.00112 S/m
x2 = 1.5e-07, x1 = 6e-08	0.000443 S/m
x2 = 1.5e-07, x1 = 1e-07	0.00161 S/m
x2 = 1.6e-07, x1 = 2e-08	0.000934 S/m
x2 = 1.6e-07, x1 = 7e-08	0.000477 S/m
x2 = 1.7e-07, x1 = 1.1e-07	0.00167 S/m
x2 = 1.8e-07, x1 = 1.8e-07	0.00116 S/m
x2 = 1.8e-07, x1 = 2.7e-07	0.0012 S/m
x2 = 1.9e-07, x1 = 2e-08	0.00106 S/m
x2 = 2e-07, x1 = 9e-08	0.000571 S/m
x2 = 2e-07, x1 = 1.3e-07	0.00173 S/m
x2 = 2.2e-07, x1 = 5e-08	0.00121 S/m
x2 = 2.2e-07, x1 = 2.2e-07	0.00125 S/m
x2 = 2.3e-07, x1 = 3e-08	0.00115 S/m
x2 = 2.6e-07, x1 = 1.7e-07	0.00178 S/m
x2 = 2.6e-07, x1 = 2.6e-07	0.00135 S/m
x2 = 2.8e-07, x1 = 3e-08	0.00131 S/m
x2 = 3e-07, x1 = 7e-08	0.00125 S/m
x2 = 3e-07, x1 = 1.3e-07	0.000632 S/m
x2 = 3e-07, x1 = 2e-07	0.00186 S/m
x2 = 3e-07, x1 = 3e-07	0.00143 S/m
x2 = 3.1e-07, x1 = 3e-08	0.00138 S/m
x2 = 3.4e-07, x1 = 4e-08	0.00144 S/m
x2 = 3.4e-07, x1 = 3.4e-07	0.00147 S/m
x2 = 3.6e-07, x1 = 4e-08	0.00156 S/m
x2 = 3.7e-07, x1 = 2.4e-07	0.00196 S/m
x2 = 4e-07, x1 = 4e-08	0.00168 S/m
x2 = 4.1e-07, x1 = 1e-07	0.0013 S/m
x2 = 4.1e-07, x1 = 1.8e-07	0.000659 S/m
x2 = 4.1e-07, x1 = 2.7e-07	0.00203 S/m
x2 = 4.6e-07, x1 = 3.1e-07	0.00208 S/m
x2 = 4.7e-07, x1 = 5e-08	0.00179 S/m
x2 = 5.1e-07, x1 = 2.2e-07	0.000678 S/m
x2 = 5.1e-07, x1 = 3.4e-07	0.0022 S/m
x2 = 5.4e-07, x1 = 6e-08	0.0019 S/m
x2 = 5.6e-07, x1 = 3.7e-07	0.00228 S/m
x2 = 5.8e-07, x1 = 1.5e-07	0.00133 S/m
x2 = 6.1e-07, x1 = 7e-08	0.00201 S/m
x2 = 6.6e-07, x1 = 2.8e-07	0.000706 S/m
x2 = 6.7e-07, x1 = 7e-08	0.00214 S/m
x2 = 7.9e-07, x1 = 3.4e-07	0.000733 S/m
x2 = 8.2e-07, x1 = 2e-07	0.00138 S/m
x2 = 9e-07, x1 = 3.9e-07	0.000778 S/m
x2 = 1.05e-06, x1 = 2.6e-07	0.00143 S/m
